{
  "source": "patent US20090117205A1",
  "about": "“Quinolone-containing medicinal composition” (Daiichi Pharmaceutical CO., LTD, priority 2004, published 2009)",
  "type_in_all_cases": "physicochemical",
  "key": {"[1]": {"test": "Stability test of the lyophilized product produced from drug solution of different pH", "source_text": "Lyophilized products were produced from the drug solution of different pH according to the evaluation of pH of the drug solution used for the lyophilization (1) to evaluate the stability of the Compound (1)."}, "[2]": {"test": "Solubility of Compound (1) in water with change in pH", "procedure": "Change in solubility with the change in pH of the drug solution of the Compound (1) was measured by the method commonly used in the art."}, "[3]": {"test": "Evaluation of the concentration of the drug solution used for the lyophilization (cake formation)"}, "[4]": {"conditions": "lyophilized product from drug solution pH 2.5, 60° C., 1 W"}, "[5]": {"conditions": "lyophilized product from drug solution pH 2.5, 60° C., 2 W"}, "[6]": {"conditions": "lyophilized product from drug solution pH 2.5, Initial"}, "[7]": {"conditions": "lyophilized product from drug solution pH 3.5, 60° C., 1 W"}, "[8]": {"conditions": "lyophilized product from drug solution pH 3.5, 60° C., 2 W"}, "[9]": {"conditions": "lyophilized product from drug solution pH 3.5, Initial"}, "[10]": {"conditions": "lyophilized product from drug solution pH 4.5, 60° C., 1 W"}, "[11]": {"conditions": "lyophilized product from drug solution pH 4.5, 60° C., 2 W"}, "[12]": {"conditions": "lyophilized product from drug solution pH 4.5, Initial"}},
  "note": "Where two headings read alike, the source gives them in different places.",
  "data": [
    {"smiles": "COc1c(N2CC[C@@H](C3(N)CC3)C2)ccc2c(=O)c(C(=O)O)cn([C@@H]3C[C@@H]3F)c12", "note": "[Compound (1), 7-[3-(R)-(1-aminocyclopropyl)pyrrolidine-1-yl]-1-[2-(S)-fluoro-1-(R)-cyclopropyl]-1,4-dihydro-8-methoxy-4-oxoquinoline-3-carboxylic acid]", "values": [
      {"measurement": "Stability of the Compound (1) in the lyophilized products", "setting": "[1]; drug solution at a pH in the range of 2.5 to 4.5", "result": "sufficient stability"},
      {"measurement": "Appearance", "setting": "[1]; [4]", "result": "Yellow"},
      {"measurement": "Content in relation to Initial amount (%)", "setting": "[1]; [4]", "result": 100.8, "unit": "%"},
      {"measurement": "Content in relation to Nominal amount (%)", "setting": "[1]; [4]", "result": 96.0, "unit": "%"},
      {"measurement": "Total amount of related substance (%)", "setting": "[1]; [4]", "result": 0.95, "unit": "%"},
      {"measurement": "pH", "setting": "[1]; [4]", "result": 2.97},
      {"measurement": "Appearance", "setting": "[1]; [5]", "result": "Yellow"},
      {"measurement": "Content in relation to Initial amount (%)", "setting": "[1]; [5]", "result": 96.5, "unit": "%"},
      {"measurement": "Content in relation to Nominal amount (%)", "setting": "[1]; [5]", "result": 91.9, "unit": "%"},
      {"measurement": "Total amount of related substance (%)", "setting": "[1]; [5]", "result": 1.10, "unit": "%"},
      {"measurement": "pH", "setting": "[1]; [5]", "result": 3.05},
      {"measurement": "Appearance", "setting": "[1]; [6]", "result": "Yellow"},
      {"measurement": "Content in relation to Initial amount (%)", "setting": "[1]; [6]", "result": 100.0, "unit": "%"},
      {"measurement": "Content in relation to Nominal amount (%)", "setting": "[1]; [6]", "result": 95.3, "unit": "%"},
      {"measurement": "Total amount of related substance (%)", "setting": "[1]; [6]", "result": 0.92, "unit": "%"},
      {"measurement": "pH", "setting": "[1]; [6]", "result": 2.89},
      {"measurement": "Appearance", "setting": "[1]; [7]", "result": "Yellow"},
      {"measurement": "Content in relation to Initial amount (%)", "setting": "[1]; [7]", "result": 99.4, "unit": "%"},
      {"measurement": "Content in relation to Nominal amount (%)", "setting": "[1]; [7]", "result": 96.0, "unit": "%"},
      {"measurement": "Total amount of related substance (%)", "setting": "[1]; [7]", "result": 0.96, "unit": "%"},
      {"measurement": "pH", "setting": "[1]; [7]", "result": 3.81},
      {"measurement": "Appearance", "setting": "[1]; [8]", "result": "Yellow"},
      {"measurement": "Content in relation to Initial amount (%)", "setting": "[1]; [8]", "result": 99.7, "unit": "%"},
      {"measurement": "Content in relation to Nominal amount (%)", "setting": "[1]; [8]", "result": 96.2, "unit": "%"},
      {"measurement": "Total amount of related substance (%)", "setting": "[1]; [8]", "result": 1.17, "unit": "%"},
      {"measurement": "pH", "setting": "[1]; [8]", "result": 3.86},
      {"measurement": "Appearance", "setting": "[1]; [9]", "result": "Yellow"},
      {"measurement": "Content in relation to Initial amount (%)", "setting": "[1]; [9]", "result": 100.0, "unit": "%"},
      {"measurement": "Content in relation to Nominal amount (%)", "setting": "[1]; [9]", "result": 96.5, "unit": "%"},
      {"measurement": "Total amount of related substance (%)", "setting": "[1]; [9]", "result": 0.93, "unit": "%"},
      {"measurement": "pH", "setting": "[1]; [9]", "result": 3.73},
      {"measurement": "Appearance", "setting": "[1]; [10]", "result": "Yellow"},
      {"measurement": "Content in relation to Initial amount (%)", "setting": "[1]; [10]", "result": 97.8, "unit": "%"},
      {"measurement": "Content in relation to Nominal amount (%)", "setting": "[1]; [10]", "result": 91.1, "unit": "%"},
      {"measurement": "Total amount of related substance (%)", "setting": "[1]; [10]", "result": 1.13, "unit": "%"},
      {"measurement": "pH", "setting": "[1]; [10]", "result": 4.51},
      {"measurement": "Appearance", "setting": "[1]; [11]", "result": "Yellow"},
      {"measurement": "Content in relation to Initial amount (%)", "setting": "[1]; [11]", "result": 100.5, "unit": "%"},
      {"measurement": "Content in relation to Nominal amount (%)", "setting": "[1]; [11]", "result": 93.5, "unit": "%"},
      {"measurement": "Total amount of related substance (%)", "setting": "[1]; [11]", "result": 1.31, "unit": "%"},
      {"measurement": "pH", "setting": "[1]; [11]", "result": 4.53},
      {"measurement": "Appearance", "setting": "[1]; [12]", "result": "Yellow"},
      {"measurement": "Content in relation to Initial amount (%)", "setting": "[1]; [12]", "result": 100.0, "unit": "%"},
      {"measurement": "Content in relation to Nominal amount (%)", "setting": "[1]; [12]", "result": 93.1, "unit": "%"},
      {"measurement": "Total amount of related substance (%)", "setting": "[1]; [12]", "result": 0.93, "unit": "%"},
      {"measurement": "pH", "setting": "[1]; [12]", "result": 4.47},
      {"measurement": "solubility at 1 week", "setting": "[2]; aqueous buffer, 5° C., pH 3.5, after 1 W", "result": "≤ 19.6", "unit": "mg/mL"},
      {"measurement": "solubility at 0 week", "setting": "[2]; aqueous buffer, 5° C., pH 3.5, immediately after preparation", "result": "≤ 20.1", "unit": "mg/mL"},
      {"measurement": "solubility at 1 week", "setting": "[2]; aqueous buffer, 5° C., pH 4.0, after 1 W", "result": 19, "unit": "mg/mL"},
      {"measurement": "solubility at 0 week", "setting": "[2]; aqueous buffer, 5° C., pH 4.0, immediately after preparation", "result": "≤ 20.1", "unit": "mg/mL"},
      {"measurement": "solubility at 1 week", "setting": "[2]; aqueous buffer, 5° C., pH 4.5, after 1 W", "result": 18.8, "unit": "mg/mL"},
      {"measurement": "solubility at 0 week", "setting": "[2]; aqueous buffer, 5° C., pH 4.5, immediately after preparation", "result": "≤ 20", "unit": "mg/mL"},
      {"measurement": "solubility at 1 week", "setting": "[2]; aqueous buffer, 5° C., pH 5.0, after 1 W", "result": 18.4, "unit": "mg/mL"},
      {"measurement": "solubility at 1 week", "setting": "[2]; aqueous buffer, 5° C., pH 5.5, after 1 W", "result": 5.4, "unit": "mg/mL"},
      {"measurement": "solubility at 1 week", "setting": "[2]; aqueous buffer, 5° C., pH 6.0, after 1 W", "result": 0.7, "unit": "mg/mL"},
      {"measurement": "solubility at 1 week", "setting": "[2]; aqueous buffer, 25° C., pH 3.5, after 1 W", "result": "≤ 20.1", "unit": "mg/mL"},
      {"measurement": "solubility at 0 week", "setting": "[2]; aqueous buffer, 25° C., pH 3.5, immediately after preparation", "result": "≤ 20.1", "unit": "mg/mL"},
      {"measurement": "solubility at 1 week", "setting": "[2]; aqueous buffer, 25° C., pH 4.0, after 1 W", "result": 19.6, "unit": "mg/mL"},
      {"measurement": "solubility at 0 week", "setting": "[2]; aqueous buffer, 25° C., pH 4.0, immediately after preparation", "result": "≤ 20.1", "unit": "mg/mL"},
      {"measurement": "solubility at 1 week", "setting": "[2]; aqueous buffer, 25° C., pH 4.5, after 1 W", "result": 20.1, "unit": "mg/mL"},
      {"measurement": "solubility at 0 week", "setting": "[2]; aqueous buffer, 25° C., pH 4.5, immediately after preparation", "result": "≤ 20.1", "unit": "mg/mL"},
      {"measurement": "solubility at 1 week", "setting": "[2]; aqueous buffer, 25° C., pH 5.0, after 1 W", "result": 18.7, "unit": "mg/mL"},
      {"measurement": "solubility at 1 week", "setting": "[2]; aqueous buffer, 25° C., pH 5.5, after 1 W", "result": 4.8, "unit": "mg/mL"},
      {"measurement": "solubility at 1 week", "setting": "[2]; aqueous buffer, 25° C., pH 6.0, after 1 W", "result": 0.7, "unit": "mg/mL"},
      {"measurement": "solubility", "setting": "[2]; aqueous buffer, pH up to pH 5, read-out: Concentration that can be attained in the solution", "result": "≥ 10", "unit": "mg/mL"},
      {"measurement": "solubility", "setting": "[2]; pH 4.5, aqueous buffer, pH up to 4.5, read-out: Concentration that can be attained in the solution", "result": "≥ 20", "unit": "mg/mL"},
      {"measurement": "Cake formation (number of vials with cake formation/number of vials tested)", "setting": "[3]; drug solution 1.25 mg/mL", "result": "0/5"},
      {"measurement": "Cake formation (number of vials with cake formation/number of vials tested)", "setting": "[3]; drug solution 2.5 mg/mL", "result": "4/5"},
      {"measurement": "Cake formation (number of vials with cake formation/number of vials tested)", "setting": "[3]; drug solution 5 mg/mL", "result": "4/5"},
      {"measurement": "Cake formation (number of vials with cake formation/number of vials tested)", "setting": "[3]; drug solution 10 mg/mL", "result": "5/5"},
      {"measurement": "Cake formation (number of vials with cake formation/number of vials tested)", "setting": "[3]; drug solution 15 mg/mL", "result": "5/5"},
      {"measurement": "Cake formation (number of vials with cake formation/number of vials tested)", "setting": "[3]; drug solution 20 mg/mL", "result": "5/5"}
    ]}
  ]
}
